# Experimental data taken from patent publication US20020010207A1, “Tropane analogs and methods for inhibition of monoamine transport” (priority 2000, published 2002).
# Where “and” joins values, the source holds several entries; their conditions need not be identical. Equal values may be shown once. Read-outs that look alike come from different tables or passages of the source.
# Columns and labels:
# [1] = biological target: T1, dopamine transporter (DAT) (Macaca fascicularis, UniProt Q9GJT6); assay: Dopamine transporter assay: inhibition of 3H-WIN35,428 binding, caudate-putamen membranes; design: species or system cynomolgus monkey (Macaca fascicularis); details: for Selectivity DAT V. SERT: ratio of SERT IC50 to DAT IC50
# T1 construct: The caudate-putamen will be dissected from coronal slices; from tissue; host or cells: cynomolgus monkey caudate-putamen membranes
# [2] = biological target: T2, serotonin transporter (SERT) (Macaca fascicularis, UniProt A7KAX8); assay: Serotonin transporter assay: inhibition of 3H-citalopram binding, caudate-putamen membranes; design: species or system cynomolgus monkey (Macaca fascicularis)
# T2 construct: The serotonin transporter is assayed in caudate-putamen membranes; from tissue; host or cells: cynomolgus monkey caudate-putamen membranes
# Procedure: It is also important to measure the selectivity of the candidate of the dopamine compared with the serotonin transporter. The serotonin transporter is also detectable in the striatum, the brain region with the highest density of dopamine neurons and in brain regions surrounding the striatum. […] Therefore, a measure of probe affinity of the serotonin transport is conducted by assays paralleling the dopamine transporter assays.
# Brain tissue from adult male and female cynomolgus monkeys (Macaca fascicularis) is stored at −85° C. in the primate -brain bank at the New England Regional Primate Research Center. […] Membranes are prepared as described previously. Briefly, the caudate-putamen is homogenized in 10 volumes (w/v) of ice-cold Tris.HCl buffer (50 mM, pH 7.4 at 4° C.) and centrifuged at […] for 20 min in the cold. The resulting pellet is suspended in 40 volumes of buffer, and the entire procedure is repeated twice.
# The serotonin transporter is assayed in caudate-putamen membranes using conditions similar to those for the dopamine transporter. […] The 2 h incubation (0-4° C.) is initiated by addition of membranes and terminated by rapid filtration over Whatman GF/B glass fiber filters pre-soaked in 0.1% polyethyleneimine. The filters are washed twice with 5 ml Tris.HCl buffer (50 mM) and the remaining steps are carried out as described above. […] Specific binding is the difference between the two values.
# Data are analyzed by EBDA and LIGAND computer software (Elsevier-Biosoft, UK) Final estimates of IC50 and nH values are computed by the EBDA program. Baseline values for the individual drugs are established by computer analysis using the baseline drugs as guide. The LIGAND program provides final parameter estimates of the novel compounds by iterative non-linear curve-fitting and evaluation of one- or two-component binding models.
# [3] = tested on: dopamine transporter (DAT); details: potency ratio versus (1S)-(+)-cocaine; cited from earlier work
# [4] = Table 1, inhibition of 3H-WIN35,428 binding, cynomolgus monkey caudate-putamen, read-out: IC50 (nM DAT)
# [5] = Table 1, inhibition of 3H-citalopram binding, cynomolgus monkey caudate-putamen, read-out: IC50 (nM SERT)
# T1 sequence (Q9GJT6 whole entry): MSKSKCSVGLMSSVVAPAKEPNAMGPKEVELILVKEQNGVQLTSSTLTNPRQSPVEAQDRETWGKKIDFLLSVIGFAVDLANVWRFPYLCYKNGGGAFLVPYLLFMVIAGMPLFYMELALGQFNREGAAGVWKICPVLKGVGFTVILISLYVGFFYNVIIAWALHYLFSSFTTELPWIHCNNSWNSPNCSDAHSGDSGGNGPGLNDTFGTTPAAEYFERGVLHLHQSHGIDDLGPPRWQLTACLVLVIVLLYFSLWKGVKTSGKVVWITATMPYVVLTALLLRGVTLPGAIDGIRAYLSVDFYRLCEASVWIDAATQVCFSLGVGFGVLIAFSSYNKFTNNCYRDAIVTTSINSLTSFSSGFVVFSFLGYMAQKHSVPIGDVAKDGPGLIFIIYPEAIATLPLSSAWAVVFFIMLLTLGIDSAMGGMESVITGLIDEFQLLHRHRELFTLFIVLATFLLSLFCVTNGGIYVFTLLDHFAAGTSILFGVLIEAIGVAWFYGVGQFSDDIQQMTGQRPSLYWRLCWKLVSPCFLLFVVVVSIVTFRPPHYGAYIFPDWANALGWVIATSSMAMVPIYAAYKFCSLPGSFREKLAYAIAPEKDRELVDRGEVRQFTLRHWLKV
# T2 sequence (A7KAX8 1-630): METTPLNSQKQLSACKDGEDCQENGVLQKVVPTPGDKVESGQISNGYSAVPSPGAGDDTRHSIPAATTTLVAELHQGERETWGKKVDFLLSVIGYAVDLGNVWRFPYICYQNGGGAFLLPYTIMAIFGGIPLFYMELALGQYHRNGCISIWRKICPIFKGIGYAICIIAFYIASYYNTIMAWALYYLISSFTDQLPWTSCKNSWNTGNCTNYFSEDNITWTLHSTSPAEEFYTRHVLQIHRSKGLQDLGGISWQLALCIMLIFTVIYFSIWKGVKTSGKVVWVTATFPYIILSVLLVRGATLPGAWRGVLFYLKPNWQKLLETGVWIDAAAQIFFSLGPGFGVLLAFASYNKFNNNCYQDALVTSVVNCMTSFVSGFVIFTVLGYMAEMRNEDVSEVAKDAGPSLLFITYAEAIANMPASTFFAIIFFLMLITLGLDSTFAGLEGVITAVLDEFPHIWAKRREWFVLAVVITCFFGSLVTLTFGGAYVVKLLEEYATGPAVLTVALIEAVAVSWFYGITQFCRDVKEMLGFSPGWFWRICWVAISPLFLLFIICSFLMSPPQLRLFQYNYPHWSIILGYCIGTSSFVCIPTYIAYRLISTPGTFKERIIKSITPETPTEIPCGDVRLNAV
Structure (SMILES),"IC50 [1, 4] [nM]","IC50 [2, 5] [nM]",Selectivity DAT V. SERT ([1]; Table 1),other results
"COC(=O)C1C(c2ccc(Cl)c(Cl)c2)CC2CC(O)C1N2 (stereo not drawn) [Compound 10, 2β-Carbomethoxy-3-(3,4-dichlorophenyl)-7-hydroxy-8-azabicyclo(3.2.1)octane]",1,1450,,
COC(=O)C1C(c2ccc(Cl)c(Cl)c2)CC2CC(O)C1N2C (stereo not shown) [Compound 11],1,20,20,
COC(=O)C1=C(c2ccc(Cl)c(Cl)c2)CC2CCC1N2C (stereo not shown) [Compound 48],,,,"IC50 [1]: 1.1 nM; Selectivity DAT V. SERT ([1]; Table 2, 2,3-enes): 790; IC50 [2]: 867 nM"
"COC(=O)C1C(c2ccc(Cl)c(Cl)c2)CC2CC(OC)C1N2 (stereo not drawn) [Compound 15, 2β-Carbomethoxy-3-(3,4-dichlorophenyl)-7-methoxy-8-azabicyclo(3.2.1)octane]",92,5220,57,
COC(=O)[C@H]1[C@@H](OC(=O)c2ccccc2)C[C@@H]2CC[C@H]1N2C [(1R)-(−)-cocaine],,,,binds at the dopamine transporter more potently than the unnatural isomer (1S)-(+)-cocaine [3]: about 200 fold
"COC(=O)[C@H]1[C@@H](c2ccc(Cl)c(Cl)c2)C[C@@H]2CC[C@H]1N2C [(1R)-3β-(3,4-di-chlorophenyl)-tropane-2β-carboxylic acid methyl ester, reference compound]",,,2,IC50 [1]: 1.09 nM
"COC(=O)C1=C(c2ccc(Cl)c(Cl)c2)CC2CC[C@H]1O2 [Compound 47e, (1R)-2-Carbomethoxy-3-(3,4-dichlorophenyl)-8-oxabicyclo(3.2.1)-2-octene]",,,,IC50 ([1]; read-out: IC50 (nM) DAT): 4.6 nM; IC50 ([2]; read-out: IC50 (nM) SERT): 2120 nM
"COC(=O)C1=C(c2ccc(Cl)c(Cl)c2)CC2CC[C@@H]1O2 [Compound 47f, (1S)-2-Carbomethoxy-3-(3,4-dichlorophenyl)-8-oxabicyclo(3.2.1)-2-octene]",,,,"Selectivity DAT V. SERT ([1]; Table 2, 2,3-enes): 800 and 802; IC50 ([1]; read-out: IC50 (nM) DAT): 58.2 nM; IC50 ([2]; read-out: IC50 (nM) SERT): 46700 nM"
"COC(=O)C1C(c2ccc(Cl)c(Cl)c2)CC2CC(OC)C1N2 (stereo not drawn) [Compound 14, 2β-carbomethoxy-3β-(3,4-dichlorophenyl)-7-methoxy-8-azabicyclo(3.2.1)octane]",86,884,10,
